In patent publication US20240391931A1 (Bristol-Myers Squibb Company, priority 2021, published 2024):
pEC50: −log10 of the molar value.

Tests used:
[1] = biological target: T1, HER2 wildtype (WT) protein (Homo sapiens, UniProt P04626); test: HER2 signaling (pHER2 Tyr1248/total HER2 MSD) in BT474 cells; format: cell-based; details: 1.5 hr compound, 1% FBS
T1 construct: BT474 and N87 cell lines which endogenously overexpress the HER2 wildtype (WT) protein; endogenous in cells; host or cells: BT474, N87
Protocol: In addition to the engineered cell lines, the following cell lines were used: BT474 (human breast carcinoma), N87 (human gastric carcinoma), NCI-H1781 (human lung adenocarcinoma), and A431 (human epidermoid carcinoma); all cell lines were obtained from the American Type Culture Collection (ATCC, Manassas, VA). NCI-H1781 were grown in complete RPMI 1640 (Life Technologies, Carlsbad, CA) supplemented with 15% fetal bovine serum (FBS, Life Technologies, Carlsbad, CA) and 1% Penicillin-Streptomycin (P/S, Life Technologies, Carlsbad, CA). N87 cells were grown in complete RPMI 1640 supplemented with 10% FBS and 1% P/S. BT474 and A431 cells were grown in DMEM (Life Technologies, Carlsbad, CA) supplemented with 10% FBS and 1% P/S. All cells were maintained and propagated in a humidified 5% CO2 incubator at 37° C.
(§1) HER2 signaling was assessed in BT474 and N87 cell lines which endogenously overexpress the HER2 wildtype (WT) protein, in NCI-H1781 cells which endogenously expresses a HER2 mutant protein containing a VC insertion in the kinase domain (HER2VC or G776delinsVC), and in engineered cell lines transduced to express the Her2 mutant protein containing the YVMA insertion (Hek293-HER2YVMA and BEAS2B-HER2YVMA).
(§2) BT474, N87, and NCI-H1781 were plated in 96-well tissue-culture treated plates (Corning Costar, Sigma-Aldrich) in full media and incubated overnight. Hek293-HER2YVMA and BEAS2B-HER2YVMA cells were plated in 96-well poly-D-lysine treated plates (BD Bioscience, San Jose, CA). For treatment with test compounds, the media was replaced with corresponding low serum media (1% FBS) containing test compound at 1.1, 0.37, 0.12, 0.041, 0.014, 0.005, 0.0014, 0.0005 μM or DMSO control (0.1%). Cells were incubated with compound for 1.5 hr at 37° C. After compound treatment, the media was removed and cells were lysed for 30 min on ice in complete MSD lysis buffer (prepared using MSD base lysis buffer (Meso-Scale Discovery) supplemented with cOmplete, EDTA-free Protease inhibitor cocktail (Roche), Phosphatase Inhibitor Cocktails 2 and 3 (Sigma-Aldrich), and 1 mM PMSF (Sigma-Aldrich)). Lysates were stored at −70° C. until further analysis.
(§3) HER2 signaling was evaluated using phospho (Tyr1248)/total ErbB2 whole cell lysate MSD plates (Meso-Scale Discovery, Gaithersburg, MD). The phospho HER2 signal was normalized to total HER2 for each sample; results are reported as % DMSO control. The normalized data was fitted using a sigmoidal curve analysis program (Graph Pad Prism version 6) with variable Hill slope to determine EC50 values.
The HER2 signaling results are provided in Table 4, under columns titled “BT474-pHER2 EC50”, “N87-pHER2 EC50”, and “NCI-H1781-pHER2 EC50”. Hek293-HER2YVMA ins fall under the heading “HEKYVMA-pHER2 EC50”, Ba/F3 HER2YVMA fall under the heading “Ba/F3 YVMA-pHER2 EC50” and BEAS2B-HER2YVMA fall under the heading “BEAS2B YVMA-pHER2 EC50”.

[2] = biological target: HER2YVMA (Homo sapiens, UniProt P04626, INS775YVMA); test: HER2 signaling (pHER2) in Hek293-HER2YVMA cells; format: cell-based; set-up: expressed in transfected cells; host or cells: HEK293 (pool), Ba/F3 (clones), BEAS2B (clones); lentiviral vector pCDH-CMV-MCS-EF1-Neo; details: 1.5 hr compound, 1% FBS, read-out: HEKYVMA pHER2 EC50
Protocol: Cell culture, plasmid cloning, and lentiviral transduction were carried out according to standard procedures. The Human HER2 cDNA construct in pCMV6-Entry for the HER2 wildtype (WT) expression was obtained from Origene. The HER2 cDNA including the 12-nucleotide insertion corresponding to YVMA insertion (HER2YVMA) was codon optimized, synthesized and cloned by GenScript (Piscataway, NJ) in pcDNA3.1. The lentiviral constructs expressing HER2YVMA and HER2 WT were sub-cloned using PCR at System Biosciences (SBI, Mountainview, CA) into lentiviral vectors pCDH-CMV-MCS-EF1-Neo and lentiviral particles were generated.
Engineered lines expressing HER2YVMA and HER2 WT were prepared in HEK293 (human embryonic kidney cells), Ba/F3 (Interleukin 3 (IL3)-dependent murine pro B cell line), and BEAS2B (primary immortalized human bronchial epithelial cell line). Ba/F3, BEAS2B, and HEK293 cells were obtained from the American Type Culture Collection (ATCC, Manassas, VA). Parental Ba/F3 cells were grown in suspension in complete RPMI 1640 supplemented with 10% FBS and 1% P/S and 10 ng/ml interleukin 3 (IL3, Sigma-Aldrich). Hek293 and BEAS2B cells were grown as monolayers in DMEM supplemented with 10% FBS and 1% P/S. All cells were maintained and propagated in a humidified 5% CO2 incubator at 37° C.
To generate Ba/F3, BEAS2B, and Hek-293 cells engineered with lentivirus to express HER2 WT or HER2YVMA, the cells were transduced with lentiviruses at multiplicity of infection (MOI) of 1 or 10; transduced cells were selected and maintained with G418 ([…]) (Geneticin, Life Technologies, Carlsbad, CA). Ba/F3 engineered cells were subjected to gradual withdrawal of interleukin 3 (IL-3, Sigma-Aldrich). After selection, IL3 independent Ba/F3 HER2YVMA, and BEAS2B HER2YVMA cells were cloned by limiting dilution. Hek293 HER2YVMA cells were used as pool. HER2 and phospho HER2 levels were confirmed by flow cytometery and immunoassay (MSD, Meso-Scale Discovery, Rockville, Maryland).
as §1, §2, §3
The HER2 signaling results are provided in Table 4, under columns titled “BT474-pHER2 EC50”, “N87-pHER2 EC50”, and “NCI-H1781-pHER2 EC50”. […]

T1 sequence (P04626 23-1255): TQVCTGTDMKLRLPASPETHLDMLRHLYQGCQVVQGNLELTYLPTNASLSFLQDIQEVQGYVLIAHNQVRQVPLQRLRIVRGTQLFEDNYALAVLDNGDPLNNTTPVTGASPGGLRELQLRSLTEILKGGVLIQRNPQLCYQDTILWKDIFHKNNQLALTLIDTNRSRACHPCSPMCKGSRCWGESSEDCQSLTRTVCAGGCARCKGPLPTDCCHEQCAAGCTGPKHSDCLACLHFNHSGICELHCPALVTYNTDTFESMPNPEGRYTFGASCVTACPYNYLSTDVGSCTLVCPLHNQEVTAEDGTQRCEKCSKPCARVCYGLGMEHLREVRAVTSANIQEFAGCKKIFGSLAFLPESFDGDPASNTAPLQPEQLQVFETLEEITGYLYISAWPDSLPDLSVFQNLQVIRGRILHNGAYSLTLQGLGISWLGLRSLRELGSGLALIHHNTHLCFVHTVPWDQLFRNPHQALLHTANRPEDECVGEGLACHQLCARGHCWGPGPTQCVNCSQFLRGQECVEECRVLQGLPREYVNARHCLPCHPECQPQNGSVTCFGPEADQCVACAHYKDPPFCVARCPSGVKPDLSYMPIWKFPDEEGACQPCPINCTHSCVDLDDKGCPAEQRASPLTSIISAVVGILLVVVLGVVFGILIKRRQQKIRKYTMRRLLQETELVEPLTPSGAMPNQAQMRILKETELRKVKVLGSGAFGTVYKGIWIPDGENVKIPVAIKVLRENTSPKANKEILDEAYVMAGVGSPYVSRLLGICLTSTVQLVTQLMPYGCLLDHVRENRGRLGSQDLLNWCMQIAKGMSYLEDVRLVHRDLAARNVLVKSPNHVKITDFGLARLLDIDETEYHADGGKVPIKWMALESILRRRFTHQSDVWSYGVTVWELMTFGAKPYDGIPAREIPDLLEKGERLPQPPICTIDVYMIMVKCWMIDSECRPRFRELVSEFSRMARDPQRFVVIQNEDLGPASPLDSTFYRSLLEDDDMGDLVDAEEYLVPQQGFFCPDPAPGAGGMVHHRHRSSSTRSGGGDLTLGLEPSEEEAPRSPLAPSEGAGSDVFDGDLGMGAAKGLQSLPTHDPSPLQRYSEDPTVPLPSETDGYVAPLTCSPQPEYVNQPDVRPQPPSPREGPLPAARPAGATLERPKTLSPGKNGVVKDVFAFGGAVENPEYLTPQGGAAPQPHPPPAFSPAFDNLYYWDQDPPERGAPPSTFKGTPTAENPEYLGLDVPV
HER2YVMA, sequence (P04626 with tags, fused parts or gaps INS775YVMA): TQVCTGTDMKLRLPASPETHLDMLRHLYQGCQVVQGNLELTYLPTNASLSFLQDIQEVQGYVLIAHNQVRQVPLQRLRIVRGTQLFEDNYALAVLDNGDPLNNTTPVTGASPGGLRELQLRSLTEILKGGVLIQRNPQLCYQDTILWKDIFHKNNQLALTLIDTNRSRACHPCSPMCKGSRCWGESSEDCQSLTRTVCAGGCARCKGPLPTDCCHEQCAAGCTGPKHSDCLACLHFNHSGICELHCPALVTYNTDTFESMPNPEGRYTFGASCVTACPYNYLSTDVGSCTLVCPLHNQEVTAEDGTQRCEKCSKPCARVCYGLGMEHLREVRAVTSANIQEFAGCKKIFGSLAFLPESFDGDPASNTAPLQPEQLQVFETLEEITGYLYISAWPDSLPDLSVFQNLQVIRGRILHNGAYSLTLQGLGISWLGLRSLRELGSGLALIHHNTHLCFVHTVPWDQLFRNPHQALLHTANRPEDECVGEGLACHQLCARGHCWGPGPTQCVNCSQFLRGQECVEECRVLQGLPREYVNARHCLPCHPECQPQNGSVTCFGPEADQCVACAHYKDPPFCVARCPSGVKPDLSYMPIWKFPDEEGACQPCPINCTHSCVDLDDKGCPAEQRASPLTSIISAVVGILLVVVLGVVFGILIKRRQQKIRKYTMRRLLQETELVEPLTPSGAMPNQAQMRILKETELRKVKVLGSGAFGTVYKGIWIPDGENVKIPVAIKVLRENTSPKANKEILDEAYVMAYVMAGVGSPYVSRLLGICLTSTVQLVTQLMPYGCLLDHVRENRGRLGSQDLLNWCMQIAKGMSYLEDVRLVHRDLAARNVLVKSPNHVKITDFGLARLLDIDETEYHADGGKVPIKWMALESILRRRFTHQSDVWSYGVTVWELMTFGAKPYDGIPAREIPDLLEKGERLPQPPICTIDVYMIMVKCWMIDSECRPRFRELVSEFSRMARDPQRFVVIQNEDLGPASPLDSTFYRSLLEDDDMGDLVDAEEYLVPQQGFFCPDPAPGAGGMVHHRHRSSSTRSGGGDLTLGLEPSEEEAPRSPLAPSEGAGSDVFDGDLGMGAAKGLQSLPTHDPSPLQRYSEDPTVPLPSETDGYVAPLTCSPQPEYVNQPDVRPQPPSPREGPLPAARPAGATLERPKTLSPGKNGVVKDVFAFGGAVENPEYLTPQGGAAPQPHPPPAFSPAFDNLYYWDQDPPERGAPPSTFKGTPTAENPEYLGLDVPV

Row | pEC50 [1] | pEC50 [2] | SMILES
1 | > 7.00 | > 7.00 | Cc1ccc(Oc2ccc(Nc3ncnc4sc5c(c34)CCN(C(=O)/C=C/CN3CCC[C@H](n4cccn4)C3)C5)cc2C)cn1 [Compound 112]
2 | > 7.00 | > 7.00 | Cc1cc(Nc2ncnc3sc4c(c23)CN(C(=O)/C=C/CN(C)C)C4)ccc1Oc1ccn2ncnc2c1 [Compound 130, (E)-1-(4-((4-([1,2,4]Triazolo[1,5-a]pyridin-7-yloxy)-3-methylphenyl)amino)-5H-pyrrolo[3′,4′:4,5]thieno[2,3-d]pyrimidin-6(7H)-yl)-4-(dimethylamino)but-2-en-1-one]
3 | > 7.00 | > 7.00 | Cc1ccc(Oc2ccc(Nc3ncnc4sc5c(c34)C(C)N(C(=O)C=CCN(C)C)C5)cc2C)cn1 (single isomer, unassigned) [Compound 147]
4 | > 7.00 | > 7.00 | C#CCOCCN(C)C/C=C/C(=O)N1CCc2c(sc3ncnc(Nc4ccc(Oc5ccc(C)nc5)c(C)c4)c23)C1 [Compound 139]
5 | > 7.00 | > 7.00 | COc1ccc(Oc2ccc(Nc3ncnc4sc5c(c34)C(C)CN(C(=O)/C=C/CN(C)C)C5)cc2C)cn1 (stereo not shown) [Compound 152, (E)-4-(dimethylamino)-1-(4-((4-((6-methoxypyridin-3-yl)oxy)-3-methylphenyl)amino)-5-methyl-5,8-dihydropyrido[4′,3′:4,5]thieno[2,3-d]pyrimidin-7(6H)-yl)but-2-en-1-one]
6 | > 7.00 | > 7.00 | Cc1ccc(Oc2ccc(Nc3ncnc4sc5c(c34)CCN(C(=O)/C=C/CN3CC4CC4(CO)C3)C5)cc2C)cn1 (stereo not shown) [Compound 118]
7 | > 7.00 | > 7.00 | Cc1cc(Nc2ncnc3sc4c(c23)CCN(C(=O)/C=C/CN(C)C)C4)ccc1Oc1ccn2ncnc2c1 [Compound 138, (E)-1-(4-((4-([1,2,4]triazolo[1,5-a]pyridin-7-yloxy)-3-methylphenyl)amino)-5,8-dihydropyrido[4′,3′:4,5]thieno[2,3-d]pyrimidin-7(6H)-yl)-4-(dimethylamino)but-2-en-1-one]
8 | > 7.00 | > 7.00 | Cc1ccc(Oc2ccc(Nc3ncnc4sc5c(c34)CCN(C(=O)/C=C/CN3CC[C@H](CO)C3)C5)cc2C)cn1 [Compound 133]
9 | > 7.00 | > 7.00 | O=C(/C=C/CN1CCOCC1)N1CCc2c(sc3ncnc(Nc4ccc(Oc5ccc6ncnn6c5)c(Cl)c4)c23)C1 [Compound 18]
10 | > 7.00 | > 7.00 | Cc1ccc(Oc2ccc(Nc3ncnc4sc5c(c34)CN(C(=O)/C=C/CN(C)C)C5C)cc2C)cn1 (stereo not shown) [Compound 153, (E)-4-(dimethylamino)-1-(7-methyl-4-((3-methyl-4-((6-methylpyridin-3-yl)oxy)phenyl)amino)-5,7-dihydro-6H-pyrrolo[3′,4′:4,5]thieno[2,3-d]pyrimidin-6-yl)but-2-en-1-one]
11 | > 7.00 | > 7.00 | COc1ccc(Oc2ccc(Nc3ncnc4sc5c(c34)CCN(C(=O)/C=C/CN3CC[C@H](CO)C3)C5)cc2C)cn1 [Compound 140]
12 | > 7.00 | 6.46 to 7.00 | Cc1ccc(Oc2ccc(Nc3ncnc4sc5c(c34)CCN(C(=O)/C=C/CN3CCC(CO)(CO)CC3)C5)cc2C)cn1 [Compound 135]
13 | > 7.00 | > 7.00 | Cc1ccc(Oc2ccc(Nc3ncnc4sc5c(c34)CCN(C(=O)/C=C/CN3CC[C@H](F)C3)C5)cc2C)cn1 [Compound 124]
14 | > 7.00 | > 7.00 | Cc1ccc(Oc2ccc(Nc3ncnc4sc5c(c34)CCN(C(=O)/C=C/CN3CC[C@@H](CO)C3)C5)cc2C)cn1 [Compound 132]
15 | > 7.00 | > 7.00 | Cc1ccc(Oc2ccc(Nc3ncnc4sc5c(c34)CCN(C(=O)/C=C/CN3CC4CCC(C3)O4)C5)cc2C)cn1 [Compound 13]
16 | > 7.00 | > 7.00 | Cc1ccc(Oc2ccc(Nc3ncnc4sc5c(c34)CC(C)N(C(=O)C=CCN(C)C)C5C)cc2C)cn1 (single isomer, unassigned) [Compound 161]
17 | > 7.00 | > 7.00 | C=CC(=O)N1CCc2c(sc3ncnc(Nc4ccc(Oc5cccnc5)c(Cl)c4)c23)C1 [Compound 6, 1-(4-((3-chloro-4-(pyridin-3-yloxy)phenyl)amino)-5,8-dihydropyrido[4′,3′:4,5]thieno[2,3-d]pyrimidin-7(6H)-yl)prop-2-en-1-one]
18 | > 7.00 | > 7.00 | Cc1cc(Nc2ncnc3sc4c(c23)CCN(C(=O)/C=C/CN2CCOCC2)C4)ccc1Oc1ccc2ncnn2c1 [Compound 12]
19 | > 7.00 | > 7.00 | Cc1ccc(Oc2ccc(Nc3ncnc4sc5c(c34)C[C@@H](C)N(C(=O)/C=C/CN(C)C)[C@H]5C)cc2C)cn1 (racemic) [Compound 149, (E)-1-(6,8-cis-dimethyl-4-((3-methyl-4-((6-methylpyridin-3-yl)oxy)phenyl)amino)-5,8-dihydropyrido[4′,3′:4,5]thieno[2,3-d]pyrimidin-7(6H)-yl)-4-(dimethylamino)but-2-en-1-one]

Row | SMILES | pEC50 [1] | pEC50 [2]
20 | Cc1cc(Nc2ncnc3sc4c(c23)CCN(C(=O)/C=C/CN(C)C)C4)ccc1Oc1ccc(N(C)C)nc1 [Compound 158, (E)-4-(dimethylamino)-1-(4-((4-((6-(dimethylamino)pyridin-3-yl)oxy)-3-methylphenyl)amino)-5,8-dihydropyrido[4′,3′:4,5]thieno[2,3-d]pyrimidin-7(6H)-yl)but-2-en-1-one] | > 7.00 | > 7.00
21 | C=CC(=O)N1Cc2sc3ncnc(Nc4ccc(Oc5ccc(C)nc5)c(C)c4)c3c2C(C)C1 (single isomer, unassigned) [Compound 146] | > 7.00 | > 7.00
22 | C=CC(=O)N1Cc2sc3ncnc(Nc4ccc(Oc5ccc(C)nc5)c(C)c4)c3c2C(C)C1 (single isomer, unassigned) [Compound 145] | > 7.00 | > 7.00
23 | Cc1ccc(Oc2ccc(Nc3ncnc4sc5c(c34)CCN(C(=O)/C=C/CN3CC4CC(C3)O4)C5)cc2C)cn1 [Compound 15] | > 7.00 | > 7.00
